Our source for the IC50 values is BindingDB's records for patent US10053455 (Ab Science, 2018).

In the experiment the target is Tyrosine-protein kinase SYK (Homo sapiens, UniProt P43405). Put plainly: In Vitro SYK Inhibition Assay. The note with it: pH 7.8; 25 °C. As for the experimental part:
SYK kinase was purified as a full length protein in a baculovirus system near homogeneity. All kinase assays were performed with the Kinase TK (tyrosine kinase) HTRF (Homogeneous Time Resolved Fluorescence) assay developed by Cisbio international. […] Reactions were initiated upon introduction of the enzyme and terminated with the addition of one reaction volume (25 μl) of HTRF detection buffer. Plates were incubated for one hour at room temperature and the time resolved Fluorescence resonance energy transfer signal was measured in a Pherastar FS microplate reader (BMG Labtech). All data were the average of triplicate results with a standard deviation <10%.

One may read the IC50 as the concentration that inhibits the measured activity by half. Low readings indicate greater potency in that assay, high ones weaker potency in that assay. For `O=C1NCCN(c2ncc(-c3cccc(Nc4nccc(-c5cccnc5)n4)c3)o2)C12CC2` [US10053455, 019], the half-maximal inhibitory concentration (IC50) is < 500 nM.
